Test results taken from patent US8623857B2, “N-phenyl imidazole carboxamide inhibitors of 3-phosphoinositide-dependent protein kinase-1” (Merck Sharp & Dohme Corp., priority 2010, dated 2014).

Columns and labels:
[1] = target: T1, PDK-1 (Homo sapiens, UniProt O15530); conditions: in vitro; cited from earlier work
T1 sequence (O15530 1-556): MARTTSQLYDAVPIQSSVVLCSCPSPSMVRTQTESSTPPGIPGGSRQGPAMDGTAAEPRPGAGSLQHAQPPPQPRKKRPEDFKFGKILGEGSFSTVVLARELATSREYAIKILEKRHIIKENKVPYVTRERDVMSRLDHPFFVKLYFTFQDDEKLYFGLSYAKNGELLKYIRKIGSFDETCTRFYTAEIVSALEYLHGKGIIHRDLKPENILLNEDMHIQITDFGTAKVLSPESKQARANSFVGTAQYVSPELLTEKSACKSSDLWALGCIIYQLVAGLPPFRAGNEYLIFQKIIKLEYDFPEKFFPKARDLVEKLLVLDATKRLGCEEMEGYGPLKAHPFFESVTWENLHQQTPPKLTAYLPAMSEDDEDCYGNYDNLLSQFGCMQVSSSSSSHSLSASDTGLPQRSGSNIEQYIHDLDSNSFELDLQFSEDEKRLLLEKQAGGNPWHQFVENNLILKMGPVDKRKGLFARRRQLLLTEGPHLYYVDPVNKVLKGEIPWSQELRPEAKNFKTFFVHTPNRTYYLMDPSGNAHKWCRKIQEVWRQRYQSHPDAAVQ

[2] = target: T2, recombinant human PDK1 (Homo sapiens, UniProt O15530); assay: PDK1 IMAP fluorescence polarization assay (inhibition of peptide substrate phosphorylation); assay type: biochemical
T2 construct: containing amino acids 51-556 of the human PDK1 enzyme; made in house; host or cells: Sf9 insect cells
T2 sequence (O15530 51-556): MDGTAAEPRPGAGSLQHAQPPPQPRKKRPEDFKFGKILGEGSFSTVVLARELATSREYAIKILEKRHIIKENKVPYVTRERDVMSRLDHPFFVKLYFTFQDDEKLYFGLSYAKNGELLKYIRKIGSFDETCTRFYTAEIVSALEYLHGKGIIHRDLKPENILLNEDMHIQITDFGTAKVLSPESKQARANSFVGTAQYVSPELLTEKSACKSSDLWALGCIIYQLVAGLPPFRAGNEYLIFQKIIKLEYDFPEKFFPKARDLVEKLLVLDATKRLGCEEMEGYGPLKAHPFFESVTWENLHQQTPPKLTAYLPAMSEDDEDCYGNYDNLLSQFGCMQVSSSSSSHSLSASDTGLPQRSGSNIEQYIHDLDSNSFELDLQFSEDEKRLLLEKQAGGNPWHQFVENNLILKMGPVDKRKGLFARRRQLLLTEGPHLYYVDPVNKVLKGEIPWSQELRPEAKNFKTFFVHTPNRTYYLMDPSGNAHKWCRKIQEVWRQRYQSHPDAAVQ

[3] = Table 6, 10 nM PDK1 enzyme, 100 nM peptide substrate, 100 nM PIFtide, 2.5 uM ATP, 1.5 hours

Compound | IC50 [2, 3] [nM] | also measured
PIFtide: "The peptide sequence of PIFtide is RREPRILSEEEQEMFRDFDYIADWC (SEQ ID NO:2)"; "interacts with PDK-1 and is derived from PRK2 kinase" (PIFtide) |  | enhance PDK-1 phosphorylation of substrates [1]: approximately 4 fold
CNc1nc(-c2c[nH]c(C(=O)Nc3cccc(F)c3N3CCC(CN)CC3)n2)cc(N2CCC(NC)(C(N)=O)CC2)n1 [Compound 127, 1-(6-(2-(2-(4-(aminomethyl)piperidin-1-yl)-3-fluorophenylcarbamoyl)-1H-imidazol-4-yl)-2-(methylamino)pyrimidin-4-yl)-4-(methylamino)piperidine-4-carboxamide] |  | IC50 ([2]; Table 10, compounds 97-132): 1 to 50 nM
Cc1cc(-c2c[nH]c(C(=O)Nc3cccc(F)c3N3CC4CCC(C3)N4)n2)ccn1 [Compound 54, N-[2-(3,8-diazabicyclo[3.2.1]oct-3-yl)-3-fluorophenyl]-4-(2-methyl-4-pyridinyl)-1H-imidazole-2-carboxamide] | 1000 to 5000 | 
Cc1cc(-c2c[nH]c(C(=O)Nc3cccc(F)c3N3CCC(C(=O)N4CCC4)CC3)n2)ccn1 [Compound 66, N-[2-[4-(1-azetidinylcarbonyl)-1-piperidinyl]-3-fluorophenyl]-4-(2-methyl-4-pyridinyl)-1H-imidazole-2-carboxamide] | 1000 to 5000 | 
CNc1nc(-c2c[nH]c(C(=O)Nc3cccc(F)c3N3CCO[C@@H](CN)C3)n2)cc(N2CC(C(=O)NC3CCCCC3)CCC2C)n1 (mixture of isomers) [Compound 110, 1-(6-(2-(2-((S)-2-(aminomethyl)morpholino)-3-fluorophenylcarbamoyl)-1H-imidazol-4-yl)-2-(methylamino)pyrimidin-4-yl)-N-cyclohexyl-6-methylpiperidine-3-carboxamide] |  | IC50 ([2]; Table 10, compounds 97-132): 1 to 50 nM
CNc1nc(-c2c[nH]c(C(=O)Nc3ccccc3N3CCC4(CC3)OCCO4)n2)cc(N2CC(C(=O)NC3CCCCC3)CCC2C)n1 (racemic) [Compound 113] |  | IC50 ([2]; Table 10, compounds 97-132): 1 to 50 nM
CNc1nc(-c2c[nH]c(C(=O)Nc3cccc(F)c3N3CCC(CN)CC3)n2)cc(N2CCN[C@@H](C)C2)n1 [Compound 124, (S)—N-(2-(4-(aminomethyl)piperidin-1-yl)-3-fluorophenyl)-4-(2-(methylamino)-6-(3-methylpiperazin-1-yl)pyrimidin-4-yl)-1H-imidazole-2-carboxamide] |  | IC50 ([2]; Table 10, compounds 97-132): 1 to 50 nM
NC(=O)N[C@@H]1CCCN(c2c(F)cccc2NC(=O)c2nc(Br)c[nH]2)C1 [Compound 15, N-[2-[3(R)-[(aminocarbonyl)amino]-1-piperidinyl]-3-fluorophenyl]-4-bromo-1H-imidazole-2-carboxamide] | 1000 to 5000 | 
N[C@@H]1CCCN(c2c(F)cccc2NC(=O)c2nc(-c3cnn(Cc4ccccn4)c3)c[nH]2)C1 [Compound 7, N-[2-(3(R)-amino-1-piperidinyl)-3-fluorophenyl]-4-[1-(2-pyridinylmethyl)-1H-pyrazol-4-yl]-1H-imidazole-2-carboxamide] | 1000 to 5000 | 
CNc1nc(-c2c[nH]c(C(=O)Nc3cccc(F)c3N3CCC(CN)CC3)n2)cc(N2CC[C@@](OC)(C(N)=O)C2)n1 [Compound 128, (S)—N-(2-(4-(aminomethyl)piperidin-1-yl)-3-fluorophenyl)-4-(6-(3-carbamoyl-3-methoxypyrrolidin-1-yl)-2-(methylamino)pyrimidin-4-yl)-1H-imidazole-2-carboxamide] |  | IC50 ([2]; Table 10, compounds 97-132): 1 to 50 nM
CC(=O)c1ccc(-c2c[nH]c(C(=O)Nc3cccc(F)c3N3CCC(CN)CC3)n2)s1 [Compound 45, 4-(5-acetyl-2-thienyl)-N-[2-[4-(aminomethyl)-1-piperidinyl]-3-fluorophenyl]-1H-imidazole-2-carboxamide] | 1000 to 5000 | 

More lines, main results first:

IC50 [2, 3] [nM] | Compound | also measured
1 to 50 | Nc1cc(-c2c[nH]c(C(=O)Nc3cccc(F)c3N3CCC[C@@H](N)C3)n2)ccn1 [Compound 20, N-[2-(−3(R)-amino-1-piperidinyl)-3-fluorophenyl]-4-(2-amino-4-pyridinyl)-1H-imidazole-2-carboxamide] | 
51 to 250 | Cc1cc(-c2c[nH]c(C(=O)Nc3cccc(F)c3N3CCC(C(C)(C)N)CC3)n2)ccn1 [Compound 67, N-[2-[4-(1-amino-1-methylethyl)-1-piperidinyl]-3-fluorophenyl]-4-(2-methyl-4-pyridinyl)-1H-imidazole-2-carboxamide] | 
251 to 1000 | Cc1cc(-c2c[nH]c(C(=O)Nc3cccc(F)c3N3CCC(C(=O)N4CCC5(CC4)CNC(=O)C5)CC3)n2)ccn1 [Compound 93, N-[3-fluoro-2-[4-[(3-oxo-2,8-diazaspiro[4.5]dec-8-yl)carbonyl]-1-piperidinyl]phenyl]-4-(2-methyl-4-pyridinyl)-1H-imidazole-2-carboxamide] | 
1 to 50 | NCC1CCN(c2c(F)cccc2NC(=O)c2nc(-c3cc(NCc4ccc(F)cc4)nc(N)n3)c[nH]2)CC1 [Compound 71, 4-[2-amino-6-[[(4-fluorophenyl)methyl]amino]-4-pyrimidinyl]-N-[2-[4-(aminomethyl)-1-piperidinyl]-3-fluorophenyl]-1H-imidazole-2-carboxamide] | 
51 to 250 | Cc1cc(-c2c[nH]c(C(=O)Nc3cccc(F)c3N3CCC(C(=O)N4CCC5(CC4)CNC5)CC3)n2)ccn1 [Compound 94, N-[2-[4-(2,7-diazaspiro[3.5]noN-7-ylcarbonyl)-1-piperidinyl]-3-fluorophenyl]-4-(2-methyl-4-pyridinyl)-1H-imidazole-2-carboxamide] | 
51 to 250 | Cc1cc(-c2c[nH]c(C(=O)Nc3cccc(F)c3N3CCC(C)(CN)CC3)n2)ccn1 [Compound 55, N-[2-[4-(aminomethyl)-4-methyl-1-piperidinyl]-3-fluorophenyl]-4-(2-methyl-4-pyridinyl)-1H-imidazole-2-carboxamide] | 
251 to 1000 | NCC1CCN(c2c(F)cccc2NC(=O)c2nc(-c3cc(C(F)(F)F)n[nH]3)c[nH]2)CC1 [Compound 48, N-[2-[4-(aminomethyl)-1-piperidinyl]-3-fluorophenyl]-4-[3-(trifluoromethyl)-1H-pyrazol-5-yl]-1H-imidazole-2-carboxamide] | 
251 to 1000 | CN(C)c1cc(-c2c[nH]c(C(=O)Nc3cccc(F)c3N3CCC(CN)CC3)n2)ccn1 [Compound 36, N-[2-[4-(aminomethyl)-1-piperidinyl]-3-fluorophenyl]-4-[2-(dimethylamino)-4-pyridinyl]-1H-imidazole-2-carboxamide] | 
1 to 50 | CCc1cc(-c2c[nH]c(C(=O)Nc3cccc(F)c3N3CCC(CN)CC3)n2)ccn1 [Compound 30, N-[2-[4-(aminomethyl)-1-piperidinyl]-3-fluorophenyl]-4-(2-ethyl-4-pyridinyl)-1H-imidazole-2-carboxamide] | 
51 to 250 | NCC1CCN(c2c(F)cccc2NC(=O)c2nc(-c3cccc(S(N)(=O)=O)c3)c[nH]2)CC1 [Compound 31, N-[2-[4-(aminomethyl)-1-piperidinyl]-3-fluorophenyl]-4-[3-(aminosulfonyl)phenyl]-1H-imidazole-2-carboxamide] | 
